From patent publication US20240083910A1, “AMIDO-SUBSTITUTED PYRIDYL COMPOUNDS AND METHODS OF USE THEREOF FOR THE TREATMENT OF HERPESVIRUSES” (Merck Sharp & Dohme LLC, priority 2020, published 2024)

Key:
[1] = target: T1, Human cytomegalovirus DNA polymerase (Human cytomegalovirus, UniProt P08546); test: CMV polymerase assay (AlphaLISA); format: biochemical; settings: HCMV polymerase 0.2 nM; 30 min pre-incubation; 60 min at 37° C.; read-out: CMV (IC50)
T1 construct: made in house; host or cells: SF21 insect cells (baculovirus vector)
T1 sequence (P08546 whole entry): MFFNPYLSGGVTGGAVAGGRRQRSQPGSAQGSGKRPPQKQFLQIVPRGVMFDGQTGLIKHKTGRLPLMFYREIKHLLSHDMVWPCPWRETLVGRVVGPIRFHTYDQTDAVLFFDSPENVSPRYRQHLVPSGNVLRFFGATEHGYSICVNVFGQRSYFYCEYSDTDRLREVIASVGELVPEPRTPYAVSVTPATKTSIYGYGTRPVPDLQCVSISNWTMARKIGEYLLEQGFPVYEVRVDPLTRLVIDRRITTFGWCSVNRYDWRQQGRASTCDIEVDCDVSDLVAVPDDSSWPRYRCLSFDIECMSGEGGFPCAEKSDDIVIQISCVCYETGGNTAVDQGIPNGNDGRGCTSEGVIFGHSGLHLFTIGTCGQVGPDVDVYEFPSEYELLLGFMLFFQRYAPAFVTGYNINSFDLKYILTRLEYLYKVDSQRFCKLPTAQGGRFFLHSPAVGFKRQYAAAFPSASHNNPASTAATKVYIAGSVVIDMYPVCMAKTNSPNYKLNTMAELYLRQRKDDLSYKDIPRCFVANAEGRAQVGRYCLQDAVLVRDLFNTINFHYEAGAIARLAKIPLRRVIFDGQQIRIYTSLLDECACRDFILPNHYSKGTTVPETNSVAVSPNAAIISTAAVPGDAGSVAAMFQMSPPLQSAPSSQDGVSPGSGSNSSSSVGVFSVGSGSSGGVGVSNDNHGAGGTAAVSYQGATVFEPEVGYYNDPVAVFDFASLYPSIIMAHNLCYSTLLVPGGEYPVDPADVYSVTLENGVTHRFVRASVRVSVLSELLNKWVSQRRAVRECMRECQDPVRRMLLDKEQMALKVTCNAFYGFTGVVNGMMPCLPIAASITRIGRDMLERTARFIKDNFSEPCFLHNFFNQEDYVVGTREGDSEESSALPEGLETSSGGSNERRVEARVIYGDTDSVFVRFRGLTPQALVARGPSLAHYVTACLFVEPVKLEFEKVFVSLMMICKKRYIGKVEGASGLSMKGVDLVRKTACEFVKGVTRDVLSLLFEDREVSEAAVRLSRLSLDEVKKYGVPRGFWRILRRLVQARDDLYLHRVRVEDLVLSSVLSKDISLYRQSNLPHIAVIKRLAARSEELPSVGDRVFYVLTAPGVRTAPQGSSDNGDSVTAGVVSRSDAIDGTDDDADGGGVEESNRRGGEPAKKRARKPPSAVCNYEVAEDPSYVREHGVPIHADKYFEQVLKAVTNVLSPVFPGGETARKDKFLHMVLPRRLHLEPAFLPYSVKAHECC
Description: Human cytomegalovirus and varicella zoster virus DNA polymerases were expressed via baculovirus vector in SF21 cells and purified. Heterodimeric nucleic acid substrate used in the herpesvirus polymerase reactions was generated by annealing a 59-mer template to a 17-mer digoxigenin-labeled primer. Polymerase (HCMV final concentration of 0.2 nM; VZV final concentration of 0.4 nM) was combined with an inhibitor compound or DMSO in assay buffer (10 mM HEPES, pH 7.5, 25 mM KCl, 25 mM NaCl, 5 mM MgCl2, 5% glycerol, 0.67 mg/ml bovine serum albumin, and 1 mM tris(2-carboxyethyl)phosphine), and this mixture was pre-incubated for 30 minutes at room temperature in 384-well microtiter plates. The polymerization reaction was initiated by the addition of template/primer substrate (final concentration: 1.6 nM), and dNTPs (final concentration: 24 nM dCTP, 24 nMdGTP, 16 nM dATP, 16 nM dTTP, and 0.8 nM biotin-dUTP). After 60 min incubation at 37° C., reactions were terminated with quench buffer (25 mM HEPES pH 7.5, 100 mM NaCl, 0.25% Tween-20, 12 mM EDTA, and 1 mg/ml bovine serum albumin). Incorporation of biotinylated UTP was detected with 2.5-5 ug/ml anti-DIG AlphaLISA acceptor beads and 5-10 ug/ml streptavidin AlphaLISA donor beads (PerkinElmer). Compound effects were normalized to the window defined by the controls (DMSO only and pre-quenched wells) and were fit using a 4-parameter algorithm to report an IC50.

[2] = tested on: HSV-1 Strain F; test: Viral qPCR assay, HSV-1; format: cell-based, Herpes Simplex Virus type 1; settings: Human alphaherpesvirus 1, 72 h, Vero or MRC5 cells, 0.0005-0.004 pfu/cell, growth medium, viral genome copies by qPCR, read-out: HSV1 Cell (EC50)
Description: (§1) MRC5 cells, Vero cells, and MeWo cells were obtained from ATCC, and were maintained at 37° C./5% CO2/90% relative humidity in Minimal Essential Medium with 10% fetal bovine serum, […] L-glutamine, 100 units/ml penicillin and 100 ug/ml streptomycin. Assay plates were prepared by dispensing compounds dissolved in DMSO into wells of 384 well collagen-coated plates using an ECHO acoustic dispenser. Each compound was tested in a 10-point, serial 3-fold dilution. Controls included uninfected cells and infected cells treated only with DMSO. Assays were initiated by mixing selected cells, in suspension, with virus, and dispensing 50 μl/well infected cells to pre-plated compounds. Plates were incubated at 37° C./5% CO2/90% relative humidity for ˜72 hrs to permit genomic replication, and infected cells were lysed by the addition of an equal volume of lysis buffer (10 mM Tris-HCl, pH8, 50 mM KCl, 2 mM MgCl2, 0.45% NP-40, 0.45% Tween-20, and 100 μg/ml proteinase K). An aliquot of the lysate was transferred to a 384-well PCR plate and incubated at 56° C. for 1 hour and then at 95° C. for 10 min. Levels of a viral gene and of the cellular control, PPIA (Thermo Fisher Assay ID=Hs04194521_s1), were measured in separate 10 ul qPCR assays using TaqMan® Gene Expression Master Mix (Applied Biosystems), and an 7900HT Fast Real-Time PCR System with 384-Well Block Module. 7-point, serial 10-fold dilutions of a plasmid standard were run on each plate to generate a standard curve, and genome copies numbers were calculated by plotting experimental Ct onto linear regression of the standard curve. Viral genome copy numbers were normalized by cellular control copy number, and compound effects were normalized to the window defined by the controls. Calculated % effects were fit using a 4-parameter algorithm, and EC50 was reported.
(§2) MRC5 cells, Vero cells, and MeWo cells were obtained from ATCC, and were maintained at 37° C./5% CO2/90% relative humidity in Minimal Essential Medium with 10% fetal bovine serum, […] L-glutamine, 100 units/ml penicillin and 100 ug/ml streptomycin. Assay plates were prepared by dispensing compounds dissolved in DMSO into wells of 384 well collagen-coated plates using an ECHO acoustic dispenser. Each compound was tested in a 10-point, serial 3-fold dilution. Controls included uninfected cells and infected cells treated only with DMSO. Assays were initiated by mixing selected cells, in suspension, with virus, and dispensing 50 μl/well infected cells to pre-plated compounds. Plates were incubated at 37° C./5% CO2/90% relative humidity for ˜72 hrs to permit genomic replication, and infected cells were lysed by the addition of an equal volume of lysis buffer (10 mM Tris-HCl, pH 8, 50 mM KCl, 2 mM MgC12, 0.45% NP-40, 0.45% Tween-20, and 100 μg/ml proteinase K). An aliquot of the lysate was transferred to a 384-well PCR plate and incubated at 56° C. for 1 hour and then at 95° C. for 10 min. Levels of a viral gene were measured in 10 ul qPCR assays using TaqMan® Gene Expression Master Mix (Applied Biosystems), and an 7900HT Fast Real-Time PCR System with 384-Well Block Module. 7-point, serial 10-fold dilutions of a plasmid standard were run on each plate to generate a standard curve, and genome copies numbers were calculated by plotting experimental Ct onto linear regression of the standard curve. Compound effects on viral genome copy number were normalized to the window defined by the controls. Calculated % effects were fit using a 4-parameter algorithm, and ECso was reported.
HSV-1: Strain F […] was assayed in Vero or MRC5 cells and was used at 0.0005-0.004 pfu/cell in growth medium. Primer-probe set was Thermo Fisher Assay ID=AIBJZIB

[3] = tested on: HCMV Strain AD169; test: Viral qPCR assay, HCMV; format: cell-based, Human cytomegalovirus; settings: Human betaherpesvirus 5, AD169, MRC5, 72 h, MRC-5 cells, 0.05-0.1 pfu/cell, growth media or 50% fetal bovine serum, viral genome copies by qPCR, read-out: CMV Cell (EC50)
Description: as §1, §2
HCMV: Strain AD169 Street was assayed in MRC-5 cells and was used at 0.05-0.1 pfu/cell. The assays were performed in either growth media or in the same media with 50% fetal bovine serum. Primer-probe set was Thermo Fisher Assay ID=AIFATFK.

[4] = tested on: VZV; test: Viral qPCR assay, VZV; format: cell-based, varicella zoster virus; settings: Human alphaherpesvirus 3, 72 h, MeWo or MRC5 cells, 0.04-0.1 pfu/cell, growth medium, viral genome copies by qPCR
Description: as §1, §2
VZV: Strain Street was maintained as an infected cell stock in MRC-5 cells. It was assayed in MeWo or MRC5 cells and was used at 0.04-0.1 pfu/cell. The assays were performed in growth medium. Primer-probe set was Thermo Fisher Assay ID=AIPAEXQ.

Structure (SMILES) | IC50 [1] | EC50 [2] | EC50 [3] | EC50 [4]
COc1nc(-c2ccc(C)o2)c(O[C@H]2CCN3C(=O)OC[C@@H]3C2)cc1C(=O)NCc1ccc(Cl)cc1 [Compound 13] | 16.2 nM | 229 nM | 457 nM | 307 nM
COc1nc(-c2ccc(C)s2)c(O[C@H]2CCN3C(=O)OC[C@@H]3C2)cc1C(=O)NCc1ccc(Cl)cc1 [Compound 14] | 19.2 nM | 824 nM | 1020 nM | 2570 nM
COc1nc(-c2ccoc2)c(O[C@H]2CCN3C(=O)OC[C@@H]3C2)cc1C(=O)NCc1ccc(Cl)cc1 [Compound 17] | 10.7 nM | 186 nM | 317 nM | 244 nM
COc1nc(-c2cc3ccccc3o2)c(O[C@H]2CCN3C(=O)OC[C@@H]3C2)cc1C(=O)NCc1ccc(Cl)cc1 [Compound 20] | 25.3 nM | 1440 nM | 587 nM | 1870 nM
COc1nc(-c2ccsc2)c(O[C@H]2CCN3C(=O)OC[C@@H]3C2)cc1C(=O)NCc1ccc(Cl)cc1 [Compound 21] | 20.9 nM | 377 nM | 500 nM | 417 nM
COc1nc(-c2occc2C=O)c(O[C@H]2CCN3C(=O)OC[C@@H]3C2)cc1C(=O)NCc1ccc(Cl)cc1 [Compound 23] | 18 nM | 87.4 nM | 140 nM | 117 nM
COCCn1cc(-c2nc(OC)c(C(=O)NCc3ccc(Cl)cc3)cc2O[C@H]2CCN3C(=O)OC[C@@H]3C2)cn1 [Compound 25] | 6.77 nM | 146 nM | 159 nM | 186 nM
COc1nc(-c2cc3ccccc3[nH]2)c(O[C@H]2CCN3C(=O)OC[C@@H]3C2)cc1C(=O)NCc1ccc(Cl)cc1 [Compound 26] | 5.8 nM | 174 nM | 372 nM | 208 nM
COc1nc(-c2cc3nccnc3[nH]2)c(O[C@H]2CCN3C(=O)OC[C@@H]3C2)cc1C(=O)NCc1ccc(Cl)cc1 [Compound 27] | 33.6 nM | 648 nM | 556 nM | 859 nM
COc1nc(-c2cc[nH]c2)c(O[C@H]2CCN3C(=O)OC[C@@H]3C2)cc1C(=O)NCc1ccc(Cl)cc1 [Compound 28] | 5.36 nM | 103 nM | 200 nM | 196 nM
COc1nc(-c2csc(-n3cccn3)n2)c(O[C@H]2CCN3C(=O)OC[C@@H]3C2)cc1C(=O)NCc1ccc(Cl)cc1 [Compound 29] | 31.2 nM | 246 nM | 514 nM | 368 nM
COc1nc(-c2ccn(C)c2)c(O[C@H]2CCN3C(=O)OC[C@@H]3C2)cc1C(=O)NCc1ccc(Cl)cc1 [Compound 30] | 14.5 nM | 202 nM | 462 nM | 187 nM
CCn1cc(-c2nc(OC)c(C(=O)NCc3ccc(Cl)cc3)cc2O[C@H]2CCN3C(=O)OC[C@@H]3C2)cn1 [Compound 31] | 5.13 nM | 103 nM | 175 nM | 102 nM
COc1nc(-c2cnn(CCO)c2)c(O[C@H]2CCN3C(=O)OC[C@@H]3C2)cc1C(=O)NCc1ccc(Cl)cc1 [Compound 32] | 0.705 nM | 52 nM | 103 nM | 106 nM
COc1ccc(-c2nc(OC)c(C(=O)NCc3ccc(Cl)cc3)cc2O[C@H]2CCN3C(=O)OC[C@@H]3C2)s1 [Compound 33] | 11 nM | 144 nM | 901 nM | 679 nM
COc1csc(-c2nc(OC)c(C(=O)NCc3ccc(Cl)cc3)cc2O[C@H]2CCN3C(=O)OC[C@@H]3C2)c1 [Compound 34] | 8.26 nM | 260 nM | 421 nM | 1920 nM
COc1nc(-c2ccc(N)nc2)c(O[C@H]2CCN3C(=O)OC[C@@H]3C2)cc1C(=O)NCc1ccc(Cl)cc1 [Compound 36] | 3.38 nM | 82 nM | 175 nM | 92.3 nM
COc1nc(-c2ccc3[nH]ccc3c2)c(O[C@H]2CCN3C(=O)OC[C@@H]3C2)cc1C(=O)NCc1ccc(Cl)cc1 [Compound 39] | 81.5 nM | 658 nM | 886 nM | 1360 nM
COc1nc(-c2cnc3[nH]ccc3c2)c(O[C@H]2CCN3C(=O)OC[C@@H]3C2)cc1C(=O)NCc1ccc(Cl)cc1 [Compound 41] | 17 nM | 494 nM | 606 nM | 418 nM
COc1nc(-c2ccncc2)c(O[C@H]2CCN3C(=O)OC[C@@H]3C2)cc1C(=O)NCc1ccc(Cl)cc1 [Compound 42] | 10.4 nM | 79.8 nM | 194 nM | 130 nM
